From US9464082B2, “Aryl and arylalkyl substituted pyrazolyl and pyrimidinyl tricyclic enones as antioxidant inflammation modulators” (AbbVie Inc., priority 2014, dated 2016)

What follows are compounds tested on IFNγ-Induced NO Production (assay: Nitric Oxide Suppression Assay (Suppression of IFNγ-Induced NO Production)). Conditions: RAW264.7; RAW 264.7 mouse macrophage cells; 2 hour pre-treatment with compound (3 μM to 0.3 nM, 10 point curve); 20 ng/mL interferon gamma, ~18 hour; Griess detection; n=2-3 in duplicates.
Format: cell-based
Method in brief: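 Griess-based absorbance read (520–550 nm) of supernatant after RAW 264.7 mouse macrophages received 10-point compound dilutions (3 μM–0.3 nM, DMSO ≤1%) for 2 h, then 20 ng/mL IFNγ for ~18 h at 37 °C. Signal normalised to IFNγ-only peak; IC50 fitted to mean of n=2-3 duplicates.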

Row | SMILES | IC50
1 | COc1ccc([C@]23C=C(C#N)C(=O)[C@@H](C)[C@@H]2CCc2c(-c4ccc5[nH]cnc5c4)nc(C)nc23)cc1 [Example 90, (6aS,7S,10aR)-4-(1H-benzimidazol-5-yl)-10a-(4-methoxyphenyl)-2,7-dimethyl-8-oxo-5,6,6a,7,8,10a-hexahydrobenzo[h]quinazoline-9-carbonitrile] | 7.32 nM
2 | Cc1nc(-c2ccc3[nH]cnc3c2)c2c(n1)[C@@]1(c3ccc(F)cc3)C=C(C#N)C(=O)[C@@H](C)[C@@H]1CC2 [Example 91, (6aS,7S,10aR)-4-(1H-benzimidazol-5-yl)-10a-(4-fluorophenyl)-2,7-dimethyl-8-oxo-5,6,6a,7,8,10a-hexahydrobenzo[h]quinazoline-9-carbonitrile] | 13.6 nM
3 | Cc1nc(-c2cccc3c(Br)n[nH]c23)c2c(n1)[C@@]1(c3ccc(F)cc3)C=C(C#N)C(=O)[C@@H](C)[C@@H]1CC2 [Example 92, (6aS,7S,10aR)-4-(3-bromo-1H-indazol-7-yl)-10a-(4-fluorophenyl)-2,7-dimethyl-8-oxo-5,6,6a,7,8,10a-hexahydrobenzo[h]quinazoline-9-carbonitrile] | 31.7 nM
4 | Cc1nc(-c2cccc3cn[nH]c23)c2c(n1)[C@@]1(c3ccc(F)cc3)C=C(C#N)C(=O)[C@@H](C)[C@@H]1CC2 [Example 93, (6aS,7S,10aR)-10a-(4-fluorophenyl)-4-(1H-indazol-7-yl)-2,7-dimethyl-8-oxo-5,6,6a,7,8,10a-hexahydrobenzo[h]quinazoline-9-carbonitrile] | 7.27 nM
5 | Cc1nc(-c2c[nH]c(=O)[nH]c2=O)c2c(n1)[C@@]1(c3ccc(F)cc3)C=C(C#N)C(=O)[C@@H](C)[C@@H]1CC2 [Example 94, (6aS,7S,10aR)-4-(2,4-dioxo-1,2,3,4-tetrahydropyrimidin-5-yl)-10a-(4-fluorophenyl)-2,7-dimethyl-8-oxo-5,6,6a,7,8,10a-hexahydrobenzo[h]quinazoline-9-carbonitrile] | 639 nM
6 | C[C@@H]1C(=O)C(C#N)=C[C@]2(c3cccc(C(=O)Nc4ccccc4)c3)c3ncncc3CC[C@@H]12 [Example 95, 3-[(6aS,7S,10aR)-9-cyano-7-methyl-8-oxo-6,6a,7,8-tetrahydrobenzo[h]quinazolin-10a(5H)-yl]-N-phenylbenzamide] | 15.5 nM
7 | CCCNC(=O)c1cccc([C@]23C=C(C#N)C(=O)[C@@H](C)[C@@H]2CCc2cncnc23)c1 [Example 96, 3-[(6aS,7S,10aR)-9-cyano-7-methyl-8-oxo-6,6a,7,8-tetrahydrobenzo[h]quinazolin-10a(5H)-yl]-N-propylbenzamide] | 78.2 nM
8 | C[C@@H]1C(=O)C(C#N)=C[C@]2(c3ccccc3)c3nn(C)c(-c4ccnnc4)c3CC[C@@H]12 [Example 97, (5aS,6S,9aR)-2,6-dimethyl-7-oxo-9a-phenyl-3-(pyridazin-4-yl)-4,5,5a,6,7,9a-hexahydro-2H-benzo[g]indazole-8-carbonitrile] | 15 nM
9 | COC(=O)n1cc(-c2nc(C)nc3c2CC[C@H]2[C@H](C)C(=O)C(C#N)=C[C@]32c2ccccc2)cn1 [Example 98, methyl 4-[(6aS,7S,10aR)-9-cyano-2,7-dimethyl-8-oxo-10a-phenyl-5,6,6a,7,8,10a-hexahydrobenzo[h]quinazolin-4-yl]-1H-pyrazole-1-carboxylate] | 1.5 nM
10 | COC(=O)c1cccc([C@]23C=C(C#N)C(=O)[C@@H](C)[C@@H]2CCc2cnc(-c4ccccc4)nc23)c1 [Example 99, methyl 3-[(6aS,7S,10aR)-9-cyano-7-methyl-8-oxo-2-phenyl-6,6a,7,8-tetrahydrobenzo[h]quinazolin-10a(5H)-yl]benzoate] | 23.4 nM
11 | C[C@@H]1C(=O)C(C#N)=C[C@]2(c3cccc(C(=O)O)c3)c3nc(-c4ccccc4)ncc3CC[C@@H]12 [Example 100, 3-[(6aS,7S,10aR)-9-cyano-7-methyl-8-oxo-2-phenyl-6,6a,7,8-tetrahydrobenzo[h]quinazolin-10a(5H)-yl]benzoic acid] | 426 nM
12 | COC(=O)c1ccc(-c2ncc3c(n2)[C@@]2(c4cccc(C(=O)OC)c4)C=C(C#N)C(=O)[C@@H](C)[C@@H]2CC3)cc1 [Example 101, methyl 3-[(6aS,7S,10aR)-9-cyano-2-[4-(methoxycarbonyl)phenyl]-7-methyl-8-oxo-6,6a,7,8-tetrahydrobenzo[h]quinazolin-10a(5H)-yl]benzoate] | 45.6 nM
13 | COc1nc(Cl)nc2c1CC[C@H]1[C@H](C)C(=O)C(C#N)=C[C@]21c1ccccc1 [Example 102, (6aS,7S,10aR)-2-chloro-4-methoxy-7-methyl-8-oxo-10a-phenyl-5,6,6a,7,8,10a-hexahydrobenzo[h]quinazoline-9-carbonitrile] | 3.97 nM
14 | COc1nc(OC)c2c(n1)[C@@]1(c3ccccc3)C=C(C#N)C(=O)[C@@H](C)[C@@H]1CC2 [Example 103, (6aS,7S,10aR)-2,4-dimethoxy-7-methyl-8-oxo-10a-phenyl-5,6,6a,7,8,10a-hexahydrobenzo[h]quinazoline-9-carbonitrile] | 4.4 nM
15 | C[C@@H]1C(=O)C(C#N)=C[C@]2(c3cccc(C(=O)O)c3)c3nc(-c4ccc(C(=O)O)cc4)ncc3CC[C@@H]12 [Example 104, 3-[(6aS,7S,10aR)-2-(4-carboxyphenyl)-9-cyano-7-methyl-8-oxo-6,6a,7,8-tetrahydrobenzo[h]quinazolin-10a(5H)-yl]benzoic acid] | 924 nM
16 | C[C@@H]1C(=O)C(C#N)=C[C@]2(c3ccccc3)C3=NN(C)[C@@H](c4ccccc4)[C@H]3CC[C@@H]12 [Example 105, (3R,3aR,5aS,6S,9aR)-2,6-dimethyl-7-oxo-3,9a-diphenyl-3,3a,4,5,5a,6,7,9a-octahydro-2H-benzo[g]indazole-8-carbonitrile] | 34.5 nM
17 | C[C@@H]1C(=O)C(C#N)=C[C@]2(c3ccccc3)c3n[nH]c(-c4ccc(N)nc4)c3CC[C@@H]12 [Example 106, (5aS,6S,9aR)-3-(6-aminopyridin-3-yl)-6-methyl-7-oxo-9a-phenyl-4,5,5a,6,7,9a-hexahydro-2H-benzo[g]indazole-8-carbonitrile] | 8.77 nM
18 | Cc1nc(-c2ccc3nccn3c2)c2c(n1)[C@@]1(c3ccccc3)C=C(C#N)C(=O)[C@@H](C)[C@@H]1CC2 [Example 107, (6aS,7S,10aR)-4-(imidazo[1,2-a]pyridin-6-yl)-2,7-dimethyl-8-oxo-10a-phenyl-5,6,6a,7,8,10a-hexahydrobenzo[h]quinazoline-9-carbonitrile] | 10.7 nM
19 | Cc1nc(-c2ccc(O)cc2)c2c(n1)[C@@]1(c3ccccc3)C=C(C#N)C(=O)[C@@H](C)[C@@H]1CC2 [Example 108, (6aS,7S,10aR)-4-(4-hydroxyphenyl)-2,7-dimethyl-8-oxo-10a-phenyl-5,6,6a,7,8,10a-hexahydrobenzo[h]quinazoline-9-carbonitrile] | 3.63 nM
20 | Cc1nc(-c2cccc(O)c2)c2c(n1)[C@@]1(c3ccccc3)C=C(C#N)C(=O)[C@@H](C)[C@@H]1CC2 [Example 109, (6aS,7S,10aR)-4-(3-hydroxyphenyl)-2,7-dimethyl-8-oxo-10a-phenyl-5,6,6a,7,8,10a-hexahydrobenzo[h]quinazoline-9-carbonitrile] | 2.87 nM
21 | Cc1nc(-c2cccc(CCCO)c2)c2c(n1)[C@@]1(c3ccccc3)C=C(C#N)C(=O)[C@@H](C)[C@@H]1CC2 [Example 110, (6aS,7S,10aR)-4-[3-(3-hydroxypropyl)phenyl]-2,7-dimethyl-8-oxo-10a-phenyl-5,6,6a,7,8,10a-hexahydrobenzo[h]quinazoline-9-carbonitrile] | 1.55 nM
22 | C[C@@H]1C(=O)C(C#N)=C[C@]2(c3ccccc3)c3nc(-c4cc(Br)ccc4O)ncc3CC[C@@H]12 [Example 111, (6aS,7S,10aR)-2-(5-bromo-2-hydroxyphenyl)-7-methyl-8-oxo-10a-phenyl-5,6,6a,7,8,10a-hexahydrobenzo[h]quinazoline-9-carbonitrile] | 12.3 nM
23 | C[C@@H]1C(=O)C(C#N)=C[C@]2(c3ccccc3)c3n[nH]c(-c4ccc(NS(C)(=O)=O)cc4)c3CC[C@@H]12 [Example 112, N-{4-[(5aS,6S,9aR)-8-cyano-6-methyl-7-oxo-9a-phenyl-4,5,5a,6,7,9a-hexahydro-2H-benzo[g]indazol-3-yl]phenyl}methanesulfonamide] | 66.4 nM
24 | C[C@@H]1C(=O)C(C#N)=C[C@]2(c3ccccc3)c3n[nH]c(-c4cccc(NS(C)(=O)=O)c4)c3CCC12 (stereo partly drawn) [Example 113, N-{3-[(6S,9aR)-8-cyano-6-methyl-7-oxo-9a-phenyl-4,5,5a,6,7,9a-hexahydro-2H-benzo[g]indazol-3-yl]phenyl}methanesulfonamide] | 43 nM
25 | C[C@@H]1C(=O)C(C#N)=C[C@]2(c3ccccc3)c3nc(-c4ccc(O)cc4)ncc3CC[C@@H]12 [Example 114, (6aS,7S,10aR)-2-(4-hydroxyphenyl)-7-methyl-8-oxo-10a-phenyl-5,6,6a,7,8,10a-hexahydrobenzo[h]quinazoline-9-carbonitrile] | 5 nM
26 | C[C@@H]1C(=O)C(C#N)=C[C@]2(c3ccccc3)c3n[nH]c(-c4ccc(CCO)cc4)c3CC[C@@H]12 [Example 115, (5aS,6S,9aR)-3-[4-(2-hydroxyethyl)phenyl]-6-methyl-7-oxo-9a-phenyl-4,5,5a,6,7,9a-hexahydro-2H-benzo[g]indazole-8-carbonitrile] | 23.6 nM
27 | C[C@@H]1C(=O)C(C#N)=C[C@]2(c3ccccc3)c3n[nH]c(-c4cccc(CCO)c4)c3CC[C@@H]12 [Example 116, (5aS,6S,9aR)-3-[3-(2-hydroxyethyl)phenyl]-6-methyl-7-oxo-9a-phenyl-4,5,5a,6,7,9a-hexahydro-2H-benzo[g]indazole-8-carbonitrile] | 9.25 nM
28 | C[C@@H]1C(=O)C(C#N)=C[C@]2(c3ccccc3)c3n[nH]c(-c4cnn(CCO)c4)c3CC[C@@H]12 [Example 117, (5aS,6S,9aR)-3-[1-(2-hydroxyethyl)-1H-pyrazol-4-yl]-6-methyl-7-oxo-9a-phenyl-4,5,5a,6,7,9a-hexahydro-2H-benzo[g]indazole-8-carbonitrile] | 17.4 nM
